Laboratory results taken from patent US20240091191A1, “USES OF CORYLIN AND/OR NEOBAVAISOFLAVONE IN TREATING SYMPTOMS ASSOCIATED WITH SENESCENCE” (Chang Gung University, priority 2022, published 2024).

What was measured:
p21 = assay: Western blot of p21 expression in HUVECs; assay type: cell-based, human; settings: late stage HUVECs (PDL9)
Method: HUVECs were cultured in M199 medium supplemented with 4-(2-hydroxyethyl)-1-piperazineethanesulfonic acid (HEPES), endothelial cell growth supplement (ECGS; Millipore), heparin, NaHCO3, L-glutamine, sodium pyruvate, and 20% fetal bovine serum (FBS; final concentration). HaCaT cells were cultured in DMEM supplemented with 10% FBS and 2 mM glutamine. The cells were grown in an atmosphere of 5% CO2 at 37° C., and passaged to maintain under 90% confluency. The cells were propagated until senescence, and those in every passage were collected for further analysis, numbers of which were determined when sub-cultured. Population doublings (PDs) were estimated following the equation: PDL=3.32 (log(total viable cells at harvest/total viable cells at seeding). The cells were harvested and lysed in RIPA lysis buffer containing 1% of Triton X-100 and a protease inhibitor cocktail, and total protein concentrations were measured with a protein assay kit. Proteins in the samples of the lysates with the same amounts of total protein were separated by sodium dodecyl sulfate polyacrylamide gel electrophoresis (SDS-PAGE) (10% polyacrylamide gels) and analyzed by immunoblotting. Primary antibodies against p21 and β-actin were applied to detect the corresponding proteins. […] Protein quantification was performed by software.

HUVECs [1] = assay: Population doubling level (PDL) of HUVECs; assay type: cell-based, human
Method: HUVECs were cultured in M199 medium supplemented with 4-(2-hydroxyethyl)-1-piperazineethanesulfonic acid (HEPES), endothelial cell growth supplement (ECGS; Millipore), heparin, NaHCO3, L-glutamine, sodium pyruvate, and 20% fetal bovine serum (FBS; final concentration). HaCaT cells were cultured in DMEM supplemented with 10% FBS and 2 mM glutamine. The cells were grown in an atmosphere of 5% CO2 at 37° C., and passaged to maintain under 90% confluency. The cells were propagated until senescence, and those in every passage were collected for further analysis, numbers of which were determined when sub-cultured.

HaCaT cells [2] = assay: Intracellular NAD+ content; assay type: cell-based; settings: 5 μM corylin or 20 μM neobavaisoflavone, 24 hours
Method: HaCaT cells were seeded into a 6-cm dish (4×10^5 cells/dish), and incubated with 5 μM corylin or 20 μM neobavaisoflavone, or without drugs, for 24 hours, before being harvested. The harvested cells were extracted with 250 μl of 1 M glacial formic acid saturated with butanol, incubated for 30 minutes on ice. Then, 62.5 μl of 100% TCA (w/v) was added to each sample, and the samples were incubated on ice for an additional 15 minutes. The samples were pelleted by centrifugation at 14,000×g for 5 minutes, and the supernatant was transferred to another eppendorf tube. The pellets were then washed with 125 μl of 20% TCA, and centrifuged, and the supernatant was combined with the aforementioned supernatant. The combined supernatants were used for the following tests. […] After incubation at 30° C. for 20 minutes, the absorbance of each sample was measured at 340 nm. The NAD^+ level of the cells in each supernatant sample was determined by the test sample (the alcohol ADH catalytic group) relative to the corresponding control sample (the water group, as the basal NADH level).

HaCaT cells [3] = assay: UVB-induced DNA breakage analysis; assay type: cell-based; settings: 100 μM pretreatment 24 hours, UVB 30 mJ/m^2
Method: HaCaT cells were seeded into a 12-well plate (7×10^4 cells/well), and incubated with 100 μM corylin or 100 μM neobavaisoflavone, or without drugs, for 24 hours, before subjected to UVB irradiation at 30 mJ/m^2. The irradiated cells were collected, washed, and mixed with 1% agarose gel solution 140 μl at 35° C., before being applied onto slides. The slides were placed at 4° C. for 1 hour for solidifying the gel, immersed in a lysis buffer for at least 1 hour and subsequently in an electrophoresis fluid for 40 minutes, and then subjected to gel-electrophoresis at 25 V for 20 minutes. The slides were immersed in a neutralizing solution for 5 minutes, mounted with 30 μl mounting medium with DAPI, and observed under a fluorescence microscope. The results were analyzed with the software OPEN COMET to quantify the breakage and the repair of the DNA in the cells.

HaCaT cells [4] = assay: UVB-induced apoptosis analysis (crystal violet); assay type: cell-based; settings: 5 μM corylin or 20 μM neobavaisoflavone 4 hours, UVB 14 mJ/m^2 four runs
Method: HaCaT cells were seeded into a 12-well plate (7×10^4 cells/well), and incubated with 5 μM corylin or 20 μM neobavaisoflavone, or without drugs, for 4 hours, before subjected to UVB irradiation at 14 mJ/m^2 for four runs. At 24 hours, the irradiated cells were collected, washed, and fixed with 4% paraformaldehyde, before being immersed in 0.5% crystal violet solution for 15 minutes at room temperature. The cells were washed, air-dried, photographed, and immersed in 50% ethanol containing 0.1% glacial acetic acid to remove the crystal violet dye. The absorbance at 550 nm was read by a microplate reader.

[5] = Body weight and food intake of aged HFD-fed mice; assay type: in vivo, mouse; settings: entire course of the experiment
Method: (§1) All animal procedures were complied with relevant regulations and were conducted under approved protocols (Protocol #CGU15-150) by Research Guidelines for the Care and Use of Laboratory Animals, Chang Guan University. C57BL/6J male mice (34 weeks of age) were maintained at 23±1° C. and at humidity of 45-65% with a 12 h dark/light cycle. After reaching 40 weeks of age, the mice were randomly divided into two groups: Group I (HFD), fed a HFD with 54% fat (n=30), and Group II (HFD/C), fed a HFD containing corylin (1 g corylin/1 kg HFD) (or the dose of corylin was 50 mg/kg) (n=30).
(§2) The ability of corylin to delay the aging process in mice was examined in the present example. To this purpose, aged C57BL/6J mice (forty-week-old) were fed with a HFD or a HFD plus 0.1% (w/w) corylin (HFD/C) ad libitum for the rest of their lives.

aged C57BL/6J mice = assay: Survival of aged mice fed HFD with or without corylin; assay type: in vivo, mouse; settings: corylin supplement 0.1% (w/w) in HFD
Method: as §1, §2

HUVECs [6] = assay: Senescence-associated (SA)-β-gal staining of HUVECs; assay type: cell-based, human; settings: late stage HUVECs (PDL9), vs control without corylin
Method: HUVECs at 90% confluency were collected, washed, and fixed with 2% formaldehyde and 0.2% glutaraldehyde for 5 minutes. The cells were then subjected to staining by incubation with a staining solution (40 mmol/l citric acid, sodium phosphate, pH 6.0, 1 mg/ml 5-bromo-4-chloro-3-isolyl-β-D-galactoside (X-gal, Sigma), 5 mmol/l potassium ferrocyanide, 5 mmol/l potassium ferricyanide, 150 mmol/l NaCl, and 2 mmol/l MgCl2) at 37° C. for 18 hours. The results of SA-β-gal-positive cells were observed by microscopy, and were counted for over 300 cells in at least three independent fields.

[7] = Pharmacokinetic analysis, serum level after corylin oral gavage; assay type: in vivo, mouse; settings: mice
Method: The blood samples of the C57BL/6J male mice (n=4) were collected at 1, 3, 6, 9, 12 and 15 h after corylin oral gavage, and the serum samples were then separated therefrom. Each serum sample (100 μl) was mixed with ice-cold acetonitrile (150 μl) at 4° C. for 1 hour, and then centrifuged at 15,000×g and 4° C. for 15 min. After centrifugation, the supernatant (150 μl) was harvested, and 150 μl ddH2O was added. The resulting mixture was analyzed by a LC/FTMS system.

| Compound | expression level of p21 (p21) | population doubling level (PDL) of HUVECs (HUVECs [1]) | intracellular NAD+ level (HaCaT cells [2]) | UVB-induced DNA breakage (HaCaT cells [3]) | survival rate of the cell under UVB irradiation (HaCaT cells [4]) | trajectory of body weight vs HFD group [5] | trajectory of food intake vs HFD group [5] | lifespan of aged mice fed on high fat diet (aged C57BL/6J mice) | number of SA-β-gal-positive senescent cells (HUVECs [6]) | concentration at 1 h ([7]; male, C57BL/6J, mouse, serum, 1 hour after oral gavage) | concentration at 3 h ([7]; male, C57BL/6J, mouse, serum, 3 hours after oral gavage) | concentration at 6 h ([7]; male, C57BL/6J, mouse, serum, 6 hours after oral gavage) | concentration at 9 h ([7]; male, C57BL/6J, mouse, serum, 9 hours after oral gavage) | concentration at 12 h ([7]; male, C57BL/6J, mouse, serum, 12 hours after oral gavage) | concentration at 15 h ([7]; male, C57BL/6J, mouse, serum, 15 hours after oral gavage) | concentration at 12 h ([7]; 1 hour after oral gavage) | concentration at 12 h ([7]; 15 hours after oral gavage) |
| --- | --- | --- | --- | --- | --- | --- | --- | --- | --- | --- | --- | --- | --- | --- | --- | --- | --- |
| CC1(C)C=Cc2cc(-c3coc4cc(O)ccc4c3=O)ccc2O1 [corylin] | decreased | increase | elevate | completely suppressed | significantly increased | did not diverge | did not diverge | significantly increased | decrease | 680 nM | 500 nM | 490 nM | 540 nM | 390 nM | 260 nM | 680 nM | 260 nM |
| CC(C)=CCc1cc(-c2coc3cc(O)ccc3c2=O)ccc1O [neobavaisoflavone] |  |  | elevate | completely suppressed | significantly increased |  |  |  |  |  |  |  |  |  |  |  |  |
